Measured values reported in patent publication US20200337992A1, “Auricular Cleaning Composition” (priority 2015, published 2020).

Test: In vitro cerumenolytic effect test on synthetic cerumen
Conditions: for % of cerumen removed: Table 3, total after four successive applications; for cerumenolytic activity / cerumenolytic effect: cf. FIG. 1, in vitro test
Method: Thus, the selected formula of the synthetic cerumen which makes it possible to evaluate the in vitro cerumenolytic effect of agents is the following: [table] In order to select a new combination of cerumenolytic agents, the cerumenolytic effect test was employed using the cerumen described in the table above. […] The distribution is carried out in such a way that the cerumen is present only in the bottom of the tube and not on the edges or the opening, which could distort the results. The tubes are then left to stand for the amount of time required for the cerumen to solidify. The distribution is carried out the day before the in vitro test in order to leave the cerumen with a minimum of 24 h to cool and solidify. The dimensions of the test tube, the temperature at which the test was carried out and the amount of synthetic cerumen were chosen to represent as faithfully as possible, in vitro, the dog ear canal. According to these parameters, the procedure followed for measuring the in vitro effectiveness of an agent or of a combination of agents having a cerumenolytic effect is the following: =>The test tube containing only the cerumen is weighed before the test. […] =>The test tube is then attached to a stirring turbine and immersed in a bath of water heated to 35° C. (the water height is sufficient for the content of the tube (cerumen+test product) to be immersed. =>The stirring is maintained for 20 minutes at 50 rpm. […] This step makes it possible to remove the product and the cerumen debris detached by the cerumenolytic agent. =>At the end of the time elapsed, the tube is weighed to evaluate the amount of cerumen removed. =>This process is carried out four times in a row, on each same tube, in order to simulate and evaluate the application number required to remove the cerumen plug present in the dog ear canal. Each time, the cerumen remaining at the bottom of the tube is dried and then weighed. […] As previously indicated, in order to check the effectiveness of an agent, the test tubes are weighed before the test is carried out and after the phase of leaving to stand upside down for 1 h. The removal of the cerumen is, according to this process, evaluated as for this example: =>Weight of the tube A before test 1: 3.493 g and weight of the tube A after test 1: 3.449 g =>Percentage of cerumen removed: […] The percentages are thus calculated for each test: from 1 to 4. The total percentage of cerumen removed is obtained after having repeated the operation successively four times for one and the same tube.

[1] = 500 mg synthetic cerumen, 2 ml test product, 35° C., 20 minutes at 50 rpm

Row | SMILES | % of cerumen removed [1] [%] | cerumenolytic activity / cerumenolytic effect | % cerumen removed (after test 4) (Table 4, 500 mg synthetic cerumen, 2 ml test product, 35° C., 20 minutes at 50 rpm, after test 4) [%]
1 | CC(C)O [100% Isopropyl alcohol, isopropyl alcohol] | 66 | about 60% | –
2 | CCOCCOCCO [100% Transcutol ®, 2-(2-ethoxyethoxy)ethanol] | 100 | ~100% | 100.0
